Some test systems named below: UACC-62 melanoma; ACHN renal; HOP-92 NSCLC; MALME-3M melanoma; SNB-75 CNS; HOP-62 NSCLC; HT29 colon; U251 CNS; M14 melanoma; OVCAR-3 ovarian; K-562 leukemia; MDA-N; LOX IMVI melanoma; NCI-H23 lung; UACC-257 melanoma; MDA-MB-435; COLO 205 colon; MOLT-4 leukemia; SR leukemia.
Holding throughout (assay): growth of human tumour cells (NCI), 48 h

The values that follow come from PubChem BioAssay (NCI).

Molecules are shown by their SMILES.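 Dose response: 5 concentrations. Exposure: 48 h. Format: 96-well plates. Endpoint: linear interpolation; highest concentration if not reached. TGI marks complete inhibition of growth.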

Take `CC(C)OCC(O)COc1ccc2ccc(=O)oc2c1` (stereo unspecified): the TGI in the experiment on UACC-62 melanoma, in the experiment on ACHN renal, in the experiment with HOP-92 NSCLC, in the experiment with MALME-3M melanoma, with SNB-75 CNS and with HOP-62 NSCLC was more than 100 µM throughout. Further, the TGI in the experiment with HT29 colon, in the experiment on U251 CNS, in the experiment with M14 melanoma, with OVCAR-3 ovarian, in the experiment on K-562 leukemia and with MDA-N was more than 100 µM each time. Further, the TGI in the experiment with LOX IMVI melanoma, in the experiment on NCI-H23 lung, in the experiment on UACC-257 melanoma, in the experiment on MDA-MB-435, with COLO 205 colon and in the experiment with MOLT-4 leukemia was more than 100 µM each time.

Regarding `O=C(Cn1cc(-c2ccccc2)nn1)NC1CCCC1`, the TGI with ACHN renal, in the experiment on HOP-92 NSCLC, in the experiment with SR leukemia, with MALME-3M melanoma, in the experiment with SNB-75 CNS and in the experiment with HOP-62 NSCLC was more than 100 µM throughout. Moreover, the TGI in the experiment on HT29 colon, in the experiment with U251 CNS, in the experiment with M14 melanoma, in the experiment on K-562 leukemia, in the experiment on LOX IMVI melanoma and with NCI-H23 lung was more than 100 µM throughout. Moreover, the TGI with UACC-257 melanoma, in the experiment with MDA-MB-435, in the experiment with COLO 205 colon and with MOLT-4 leukemia was more than 100 µM throughout.

On to `CCCCCCCCCCCCn1c(=O)cc(NCCCC)c2cc3c(NCCCC)cc(=O)n(CCCCCCCCCCCC)c3nc21`, for which the TGI in the experiment on UACC-62 melanoma, in the experiment with ACHN renal, in the experiment on HOP-92 NSCLC, in the experiment on MALME-3M melanoma, in the experiment on SNB-75 CNS and with HOP-62 NSCLC was more than 100 µM each time. The TGI with U251 CNS, in the experiment on M14 melanoma, with OVCAR-3 ovarian, with K-562 leukemia, with MDA-N and in the experiment on NCI-H23 lung was more than 100 µM each time. In addition, the TGI in the experiment with UACC-257 melanoma, with MDA-MB-435, in the experiment on COLO 205 colon and in the experiment with MOLT-4 leukemia was more than 100 µM in each case.

Consider `COC(=O)c1ccc(N=NN(C)COc2ccc(C#N)cc2)cc1`, for which the TGI with ACHN renal, in the experiment on HOP-92 NSCLC, in the experiment with MALME-3M melanoma, in the experiment on SNB-75 CNS, with HOP-62 NSCLC and in the experiment on HT29 colon was more than 100 µM in each case. Moreover, the TGI with U251 CNS, in the experiment on M14 melanoma, in the experiment on OVCAR-3 ovarian, with K-562 leukemia, in the experiment with MDA-N and in the experiment on LOX IMVI melanoma was more than 100 µM throughout. The TGI in the experiment with NCI-H23 lung, in the experiment on UACC-257 melanoma, in the experiment on MDA-MB-435, in the experiment with COLO 205 colon and in the experiment with MOLT-4 leukemia was more than 100 µM each time.

For the molecule `CCOC(=O)c1nc2ccccc2nc1NCc1ccc(OC)cc1`, the TGI in the experiment with UACC-62 melanoma, with ACHN renal, with HOP-92 NSCLC, with SR leukemia, in the experiment on MALME-3M melanoma and in the experiment with SNB-75 CNS was more than 100 µM each time. Moreover, the TGI with HOP-62 NSCLC, with HT29 colon, in the experiment with U251 CNS, in the experiment on OVCAR-3 ovarian, in the experiment with K-562 leukemia and in the experiment on LOX IMVI melanoma was more than 100 µM in each case. In addition, the TGI with NCI-H23 lung, with UACC-257 melanoma, in the experiment on MDA-MB-435, with COLO 205 colon and in the experiment on MOLT-4 leukemia was more than 100 µM throughout.

For `CN1C2CCC1C(C(O)c1ccccc1[N+](=O)[O-])C(=O)C2` (stereo unspecified), the TGI with UACC-62 melanoma, in the experiment with ACHN renal, in the experiment on MALME-3M melanoma, in the experiment with HOP-62 NSCLC, in the experiment on HT29 colon and with U251 CNS was more than 100 µM in each case. Also, the TGI in the experiment on M14 melanoma was more than 100 µM; in the experiment with OVCAR-3 ovarian it was more than 100 µM; in the experiment with K-562 leukemia it was more than 100 µM; in the experiment with MDA-N it was 75.7 µM; in the experiment on LOX IMVI melanoma, more than 100 µM; in the experiment with NCI-H23 lung it was more than 100 µM. The TGI in the experiment with UACC-257 melanoma was more than 100 µM; in the experiment with MDA-MB-435, 53 µM; in the experiment with COLO 205 colon, more than 100 µM; in the experiment on MOLT-4 leukemia it was more than 100 µM.

Consider `OCCOCn1cc(Cn2ncc3c(SCc4ccccc4)ncnc32)nn1`, for which the TGI with UACC-62 melanoma, in the experiment with ACHN renal, in the experiment on HOP-92 NSCLC, with MALME-3M melanoma, in the experiment with SNB-75 CNS and with HOP-62 NSCLC was more than 100 µM throughout. Moreover, the TGI in the experiment on HT29 colon was more than 100 µM; in the experiment on U251 CNS it was more than 100 µM; in the experiment with M14 melanoma, more than 100 µM; in the experiment with OVCAR-3 ovarian, more than 100 µM; in the experiment on K-562 leukemia, more than 100 µM; in the experiment with MDA-N, 37 µM. Besides, the TGI in the experiment with LOX IMVI melanoma was more than 100 µM; in the experiment with NCI-H23 lung, more than 100 µM; in the experiment on UACC-257 melanoma, more than 100 µM; with MDA-MB-435, 35.1 µM; with COLO 205 colon, more than 100 µM; with MOLT-4 leukemia it was 48.3 µM.

`CCCCOC(=O)C1CN2C=CC=NC2=NC1(C(F)(F)F)C(F)(F)F` (stereo unspecified): the TGI in the experiment on UACC-62 melanoma, in the experiment on ACHN renal, in the experiment with HOP-92 NSCLC, in the experiment with MALME-3M melanoma, with SNB-75 CNS and with HOP-62 NSCLC was more than 100 µM throughout. Besides, the TGI in the experiment with HT29 colon, in the experiment with U251 CNS, in the experiment with M14 melanoma, in the experiment on OVCAR-3 ovarian, in the experiment with K-562 leukemia and in the experiment with MDA-N was more than 100 µM throughout. Also, the TGI with LOX IMVI melanoma, with NCI-H23 lung, with UACC-257 melanoma, in the experiment on MDA-MB-435, with COLO 205 colon and with MOLT-4 leukemia was more than 100 µM each time.
